Data as given in ChEMBL document CHEMBL6103550, “Pyrazolo-1-carbothioamides as EGR-1-DNA binding disruptors” (Bioorg Med Chem Lett, 2025).

Target: Early growth response protein 1 (Homo sapiens) (UniProt P18146)
Assay: Disruption of EGR-1-DNA binding in TNF-alpha-stimulated human HaCaT cell nuclear extract assessed as reduction in DNA-protein complex formation pretreated for 1 hr followed by incubation of nuclear extract with biotin-EBS oligonucleotide probe (5'-CAAAAAGGAGGAAGGTGAGGGAA-biotin-3') by EMSA analysis
Assay type: subcellular
Conditions: Nucleus, dose 10-20 µM

Early growth response protein 1 (Homo sapiens), sequence (P18146 whole entry, looked up): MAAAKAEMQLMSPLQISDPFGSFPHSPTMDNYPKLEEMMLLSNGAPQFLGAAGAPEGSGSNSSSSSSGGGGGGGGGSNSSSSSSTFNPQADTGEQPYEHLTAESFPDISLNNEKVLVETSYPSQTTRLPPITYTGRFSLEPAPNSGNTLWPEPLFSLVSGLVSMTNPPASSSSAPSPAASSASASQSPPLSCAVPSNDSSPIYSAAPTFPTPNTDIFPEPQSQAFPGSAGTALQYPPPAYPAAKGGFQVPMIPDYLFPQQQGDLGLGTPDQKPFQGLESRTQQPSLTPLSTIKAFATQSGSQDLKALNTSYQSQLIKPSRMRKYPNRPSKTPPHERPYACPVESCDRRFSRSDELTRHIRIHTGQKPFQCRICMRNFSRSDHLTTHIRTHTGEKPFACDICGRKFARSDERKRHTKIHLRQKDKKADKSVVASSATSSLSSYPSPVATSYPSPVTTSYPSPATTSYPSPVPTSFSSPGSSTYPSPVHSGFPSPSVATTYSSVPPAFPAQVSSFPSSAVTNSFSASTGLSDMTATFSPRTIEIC

| Compound | Activity |
| --- | --- |
| COc1ccc(NC(=S)N2N=C(c3ccc4ccccc4c3O)CC2c2c(OC)cc(OC)cc2OC)c(OC)c1 (racemic) | Dose-dependent-effect |

Target: Early growth response protein 1 (Homo sapiens) (UniProt P18146)
Assay: Disruption of EGR-1-DNA binding in TNF-alpha-stimulated human HaCaT cells assessed as decrease in TSLP mRNA level in presence of TNF-alpha by RT-PCR analysis
Assay type: cell-based
Conditions: dose 10-20 µM

| Compound | Activity |
| --- | --- |
| COc1ccc(NC(=S)N2N=C(c3ccc4ccccc4c3O)CC2c2c(OC)cc(OC)cc2OC)c(OC)c1 (racemic) | Dose-dependent-effect |

Target: Early growth response protein 1 (Homo sapiens) (UniProt P18146)
Assay: Disruption of EGR-1-DNA binding in human HaCaT cell nuclear extract at 50 uM in the presence of biotin-EBS oligonucleotide probe (5'-CAAAAAGGAGGAAGGTGAGGGAA-biotin-3') and poly(dI-dC) by EMSA analysis relative to control
Assay type: subcellular
Conditions: not given

| Compound | Activity |
| --- | --- |
| COc1ccc(NC(=S)N2N=C(c3ccc4ccccc4c3O)CC2c2ccc(OC)cc2OC)cc1 (stereo not given) | 44.5% |
| COc1cccc(NC(=S)N2N=C(c3ccc4ccccc4c3O)CC2c2cc(OC)c(OC)cc2OC)c1 (stereo not given) | 55.5% |
| COc1ccc(/C=C/c2cc(OC)cc(OC)c2-c2oc3ccc([N+](=O)[O-])cc3c(=O)c2O)cc1 | 36.5% |
| COc1ccc(C2=NN(C(=S)Nc3cc(OC)c(OC)c(OC)c3)C(c3ccc(OC)c4ccccc34)C2)c(O)c1 (stereo not given) | 73.3% |
| COc1ccc(C2CC(c3ccc4ccccc4c3O)=NN2C(=S)Nc2ccccc2)cc1 (stereo not given) | 52.8% |
| COc1cccc(NC(=S)N2N=C(c3ccc4ccccc4c3O)CC2c2cc(OC)cc(OC)c2)c1 (stereo not given) | 42.8% |
| COc1cc(OC)cc(C2CC(c3ccc4ccccc4c3O)=NN2C(=S)Nc2cc(OC)c(OC)c(OC)c2)c1 (stereo not given) | 67.5% |
| COc1ccc(NC(=S)N2N=C(c3ccc4ccccc4c3O)CC2c2ccc(OC)cc2OC)c(OC)c1 (stereo not given) | 60.2% |
| COc1ccc(O)c(C2=NN(C(=S)Nc3ccccc3OC)C(c3ccc(OC)c4ccccc34)C2)c1 (stereo not given) | 21.8% |
| COc1cc(O)c(C2=NN(C(=S)Nc3cc(OC)c(OC)c(OC)c3)C(c3cccc4ccccc34)C2)c(OC)c1 (stereo not given) | 38.2% |
| COc1cccc(NC(=S)N2N=C(c3c(O)cccc3OC)CC2c2cccc3ccccc23)c1 (stereo not given) | 36.4% |
| COc1cc(NC(=S)N2N=C(c3c(O)cccc3OC)CC2c2ccc(OC)c3ccccc23)cc(OC)c1OC (stereo not given) | 71.8% |
| COc1ccc(NC(=S)N2N=C(c3ccc4ccccc4c3O)CC2c2cccc(OC)c2OC)cc1 (stereo not given) | 27% |
| COc1cc(O)c(C2=NN(C(=S)Nc3ccccc3)C(c3cccc4ccccc34)C2)cc1OC (stereo not given) | 53.6% |
| COc1ccc(NC(=S)N2N=C(c3ccc4ccccc4c3O)CC2c2cc(OC)c(OC)cc2OC)c(OC)c1 (stereo not given) | 56.5% |
| COc1cccc(NC(=S)N2N=C(c3ccc4ccccc4c3O)CC2c2cccc(OC)c2)c1 (stereo not given) | 16.5% |
| COc1ccccc1NC(=S)N1N=C(c2c(O)ccc3ccccc23)CC1c1ccccc1OC (stereo not given) | 22.9% |
| COc1cccc(NC(=S)N2N=C(c3c(O)cccc3OC)CC2c2ccc(OC)c3ccccc23)c1 (stereo not given) | 62.7% |
| COc1ccc(C2CC(c3ccc4ccccc4c3O)=NN2C(=S)Nc2ccccc2)c(OC)c1OC (stereo not given) | 44% |
| COc1cccc(O)c1C1=NN(C(=S)Nc2ccccc2)C(c2ccc(OC)c3ccccc23)C1 (stereo not given) | 64% |
| COc1ccccc1NC(=S)N1N=C(c2ccc3ccccc3c2O)CC1c1ccccc1OC (stereo not given) | 33.2% |
| COc1cccc(NC(=S)N2N=C(c3c(O)cc(OC)cc3OC)CC2c2cccc3ccccc23)c1 (stereo not given) | 53.3% |
| COc1ccc(NC(=S)N2N=C(c3ccc4ccccc4c3O)CC2c2ccc(OC)c(OC)c2OC)c(OC)c1 (stereo not given) | 46.8% |
| COc1ccc(NC(=S)N2N=C(c3cc(OC)c(OC)cc3O)CC2c2ccc(OC)c3ccccc23)cc1 (stereo not given) | 57.3% |

| Compound | Activity |
| --- | --- |
| COc1ccccc1NC(=S)N1N=C(c2ccc3ccccc3c2O)CC1c1cc(OC)c(OC)cc1OC (stereo not given) | 68.8% |
| COc1ccc(NC(=S)N2N=C(c3cc(OC)ccc3O)CC2c2ccc(OC)c3ccccc23)cc1 (stereo not given) | 28% |
| COc1ccccc1NC(=S)N1N=C(c2cc(OC)c(OC)cc2O)CC1c1cccc2ccccc12 (stereo not given) | 53.3% |
| COc1ccc(NC(=S)N2N=C(c3ccc4ccccc4c3O)CC2c2ccccc2OC)cc1 (stereo not given) | 31.2% |
| COc1cc(OC)c(C2CC(c3ccc4ccccc4c3O)=NN2C(=S)Nc2ccccc2)cc1OC (stereo not given) | 81.8% |
| COc1ccc(NC(=S)N2N=C(c3ccc4ccccc4c3O)CC2c2cc(OC)c(OC)cc2OC)cc1 (stereo not given) | 69% |
| COc1ccc(C2CC(c3ccccc3O)=NN2C(=S)Nc2ccccc2)c2ccccc12 (stereo not given) | 22.7% |
| COc1cc(O)c(C2=NN(C(=S)Nc3ccccc3OC)C(c3cccc4ccccc34)C2)c(OC)c1 (stereo not given) | 71.3% |
| COc1ccc(NC(=S)N2N=C(c3ccc4ccccc4c3O)CC2c2c(OC)cc(OC)cc2OC)cc1 (stereo not given) | 64.2% |
| COc1ccccc1NC(=S)N1N=C(c2c(O)cccc2OC)CC1c1ccc(OC)c2ccccc12 (stereo not given) | 67.3% |
| COc1ccc(NC(=S)N2N=C(c3cc(OC)c(OC)cc3O)CC2c2cccc3ccccc23)cc1 (stereo not given) | 46.9% |
| COc1cc(NC(=S)N2N=C(c3ccc4ccccc4c3O)CC2c2cccc(OC)c2OC)cc(OC)c1OC (stereo not given) | 35.6% |
| COc1ccc(C2CC(c3ccc4ccccc4c3O)=NN2C(=S)Nc2ccccc2OC)c(OC)c1 (stereo not given) | 46% |
| COc1cc(OC)cc(C2CC(c3ccc4ccccc4c3O)=NN2C(=S)Nc2ccccc2)c1 (stereo not given) | 59% |
| COc1ccc(NC(=S)N2N=C(c3ccc(OC)cc3O)CC2c2cccc3ccccc23)cc1 (stereo not given) | 35.1% |
| COc1ccc(NC(=S)N2N=C(c3c(O)cccc3OC)CC2c2cccc3ccccc23)cc1 (stereo not given) | 54% |
| COc1ccc(C2CC(c3ccc4ccccc4c3O)=NN2C(=S)Nc2ccc(OC)cc2OC)cc1 (stereo not given) | 64.2% |
| COc1cccc(NC(=S)N2N=C(c3ccc(OC)cc3O)CC2c2ccc(OC)c3ccccc23)c1 (stereo not given) | 56.4% |
| COc1cccc(C2CC(c3ccc4ccccc4c3O)=NN2C(=S)Nc2cc(OC)c(OC)c(OC)c2)c1 (stereo not given) | 30.8% |
| COc1ccccc1NC(=S)N1N=C(c2ccc3ccccc3c2O)CC1c1ccc(OC)c(OC)c1OC (stereo not given) | 46.5% |
| COc1ccc(C2=NN(C(=S)Nc3ccccc3OC)C(c3ccc(OC)c4ccccc34)C2)c(O)c1 (stereo not given) | 57.3% |
| COc1ccccc1NC(=S)N1N=C(c2c(O)cccc2OC)CC1c1cccc2ccccc12 (stereo not given) | 40.9% |
| COc1cccc(NC(=S)N2N=C(c3ccc4ccccc4c3O)CC2c2ccc(OC)c(OC)c2OC)c1 (stereo not given) | 38% |
| COc1cccc(NC(=S)N2N=C(c3ccccc3O)CC2c2ccc(OC)c3ccccc23)c1 (stereo not given) | 17.1% |

| Compound | Activity |
| --- | --- |
| COc1cc(O)c(C2=NN(C(=S)Nc3cc(OC)c(OC)c(OC)c3)C(c3cccc4ccccc34)C2)cc1OC (stereo not given) | 42.4% |
| COc1cccc(NC(=S)N2N=C(c3ccc4ccccc4c3O)CC2c2c(OC)cc(OC)cc2OC)c1 (stereo not given) | 64.8% |
| COc1ccc(NC(=S)N2N=C(c3c(O)ccc4ccccc34)CC2c2ccccc2OC)cc1 (stereo not given) | 31.8% |
| COc1cccc(NC(=S)N2N=C(c3ccc4ccccc4c3O)CC2c2ccccc2OC)c1 (stereo not given) | 44.8% |
| COc1ccc(NC(=S)N2N=C(c3ccc(OC)cc3O)CC2c2ccc(OC)c3ccccc23)cc1 (stereo not given) | 74.4% |
| COc1ccc(C2CC(c3ccc4ccccc4c3O)=NN2C(=S)Nc2cc(OC)c(OC)c(OO)c2)cc1 (stereo not given) | 70.5% |
| COc1ccc(NC(=S)N2N=C(c3ccc4ccccc4c3O)CC2c2cccc(OC)c2OC)c(OC)c1 (stereo not given) | 67.8% |
| COc1cc(O)c(C2=NN(C(=S)Nc3ccccc3)C(c3ccc(OC)c4ccccc34)C2)c(OC)c1 (stereo not given) | 73.3% |
| COc1cc(NC(=S)N2N=C(c3c(O)cccc3OC)CC2c2cccc3ccccc23)cc(OC)c1OC (stereo not given) | 51.6% |
| COc1ccc(NC(=S)N2N=C(c3ccc4ccccc4c3O)CC2c2c(OC)cc(OC)cc2OC)c(OC)c1 (racemic) | 82.2% |
| COc1cc(O)c(C2=NN(C(=S)Nc3cc(OC)c(OC)c(OC)c3)C(c3ccc(OC)c4ccccc34)C2)cc1OC (stereo not given) | 59.1% |
| COc1cccc(NC(=S)N2N=C(c3cc(OC)c(OC)cc3O)CC2c2cccc3ccccc23)c1 (stereo not given) | 36.4% |
| COc1cccc(NC(=S)N2N=C(c3c(O)cc(OC)cc3OC)CC2c2ccc(OC)c3ccccc23)c1 (stereo not given) | 56.7% |
| COc1ccc(NC(=S)N2N=C(c3ccc4ccccc4c3O)CC2c2ccc(OC)c(OC)c2OC)cc1 (stereo not given) | 49.5% |
| COc1cccc(NC(=S)N2N=C(c3ccc(OC)cc3O)CC2c2cccc3ccccc23)c1 (stereo not given) | 32% |
| COc1cc(OC)cc(C2CC(c3ccc4ccccc4c3O)=NN2C(=S)Nc2ccccc2OC)c1 (stereo not given) | 40.8% |
| COc1ccc(C2=NN(C(=S)Nc3ccccc3)C(c3cccc4ccccc34)C2)c(O)c1 (stereo not given) | 35.1% |
| COc1cc(O)c(C2=NN(C(=S)Nc3ccccc3OC)C(c3ccc(OC)c4ccccc34)C2)c(OC)c1 (stereo not given) | 70.7% |
| COc1cccc(C2CC(c3ccc4ccccc4c3O)=NN2C(=S)Nc2ccc(OC)cc2OC)c1 (stereo not given) | 27% |
| COc1cccc(NC(=S)N2N=C(c3ccc4ccccc4c3O)CC2c2ccc(OC)cc2OC)c1 (stereo not given) | 48% |
| COc1ccccc1NC(=S)N1N=C(c2ccccc2O)CC1c1ccc(OC)c2ccccc12 (stereo not given) | 29.1% |
| COc1ccc(NC(=S)N2N=C(c3c(O)cccc3OC)CC2c2ccc(OC)c3ccccc23)cc1 (stereo not given) | 66.7% |

Target: Early growth response protein 1 (Homo sapiens) (UniProt P18146)
Assay: Disruption of EGR-1-DNA binding in TNF-alpha-stimulated human HaCaT cells assessed as decrease in IL-6 mRNA level in presence of TNF-alpha by RT-PCR analysis
Assay type: cell-based
Conditions: dose 10-20 µM

| Compound | Activity |
| --- | --- |
| COc1ccc(NC(=S)N2N=C(c3ccc4ccccc4c3O)CC2c2c(OC)cc(OC)cc2OC)c(OC)c1 (racemic) | Dose-dependent-effect |

Target: Early growth response protein 1 (Homo sapiens) (UniProt P18146)
Assay: Disruption of EGR-1-DNA binding in TNF-alpha-stimulated human HaCaT cells assessed as decrease in CCL-2 mRNA level in presence of TNF-alpha by RT-PCR analysis
Assay type: cell-based
Conditions: dose 10-20 µM

| Compound | Activity |
| --- | --- |
| COc1ccc(NC(=S)N2N=C(c3ccc4ccccc4c3O)CC2c2c(OC)cc(OC)cc2OC)c(OC)c1 (racemic) | Dose-dependent-effect |

Target: Early growth response protein 1 (Homo sapiens) (UniProt P18146)
Assay: Disruption of EGR-1-DNA binding in TNF-alpha-stimulated human HaCaT cells assessed as decrease in IL-31 mRNA level in presence of TNF-alpha by RT-PCR analysis
Assay type: cell-based
Conditions: dose 10-20 µM

| Compound | Activity |
| --- | --- |
| COc1ccc(NC(=S)N2N=C(c3ccc4ccccc4c3O)CC2c2c(OC)cc(OC)cc2OC)c(OC)c1 (racemic) | Dose-dependent-effect |
